Here are results for 24 molecules from US8546381B2, “Bridged heterocyclic compounds and methods of use” (Medivation Technologies, Inc., priority 2008, dated 2013).

The target of test [1] is T1, human recombinant adrenergic α2A receptor (Homo sapiens, UniProt P08913).
T1 construct: expressed in transfected cells; host or cells: insect Sf9 cells
T1 sequence (P08913 1-465): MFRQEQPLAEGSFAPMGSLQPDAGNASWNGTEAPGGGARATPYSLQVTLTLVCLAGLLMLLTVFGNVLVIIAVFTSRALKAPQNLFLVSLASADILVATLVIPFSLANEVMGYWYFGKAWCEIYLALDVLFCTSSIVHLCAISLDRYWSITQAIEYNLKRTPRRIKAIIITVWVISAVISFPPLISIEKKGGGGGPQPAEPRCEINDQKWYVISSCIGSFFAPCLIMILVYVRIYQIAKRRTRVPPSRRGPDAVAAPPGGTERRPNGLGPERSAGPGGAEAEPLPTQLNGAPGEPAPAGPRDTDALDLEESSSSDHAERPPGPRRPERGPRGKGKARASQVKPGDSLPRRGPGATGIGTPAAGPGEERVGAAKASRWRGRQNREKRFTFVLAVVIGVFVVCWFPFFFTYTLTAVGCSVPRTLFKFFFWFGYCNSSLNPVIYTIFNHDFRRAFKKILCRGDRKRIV
Kind of test: Adrenergic α2A radioligand binding ([3H]MK-912). As to conditions: for inhibition at 1 µM: read-out: Adrenergic α2A, inhibition of ligand binding (1 μM). How it is done:
To evaluate in radioligand binding assays the activity of compounds of the invention, human recombinant adrenergic α2A receptor expressed in insect Sf9 cells (Uhlen S et al. J Pharmacol Exp Ther. 271:1558, 1994) in a modified Tris-HCl buffer (50 mM Tris-HCl, pH 7.4, 12.5 mM MgCl2, 2 mM EDTA) was used. Compounds of invention were incubated with 1 nM [^3H]MK-912 for 60 minutes at 25° C. MK912 is (2S-trans)-1,3,4,5′,6,6′,7,12b-octahydro-1′,3′-dimethyl-spiro[2H-benzofuro[2,3-a]quinolizine-2,4′(1′H) -pyrimidin]-2′(3′H)-one hydrochloride Non-specific binding was estimated in the presence of 10 μM WB-4101 (2-(2,6-Dimethoxyphenoxyethyl)aminomethyl-1,4-benzodioxane hydrochloride). Receptor proteins were filtered and washed, the filters were then counted to determine [^3H]MK-912 specifically bound. Compounds were screened at 1 μM or lower, using 1% DMSO as vehicle. Biochemical assay results are presented as the percent inhibition of specific binding in Table 3.

In test [2] the target is T2, human recombinant dopamine D2L receptor (Homo sapiens, UniProt P14416).
T2 construct: expressed in transfected cells; host or cells: CHO cells
T2 sequence (P14416 whole entry): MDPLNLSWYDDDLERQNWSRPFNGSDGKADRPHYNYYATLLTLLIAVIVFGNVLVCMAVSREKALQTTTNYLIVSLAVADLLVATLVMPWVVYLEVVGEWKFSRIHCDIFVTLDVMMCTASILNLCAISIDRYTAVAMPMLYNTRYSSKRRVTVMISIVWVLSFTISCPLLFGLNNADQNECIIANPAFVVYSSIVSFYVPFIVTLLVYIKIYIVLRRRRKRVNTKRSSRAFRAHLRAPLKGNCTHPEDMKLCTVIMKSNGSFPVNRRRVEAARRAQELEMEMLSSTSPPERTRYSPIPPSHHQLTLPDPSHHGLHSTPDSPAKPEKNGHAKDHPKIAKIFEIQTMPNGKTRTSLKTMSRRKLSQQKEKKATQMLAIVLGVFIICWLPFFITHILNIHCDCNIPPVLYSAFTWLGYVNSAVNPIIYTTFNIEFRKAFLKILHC
Nature of the test: Dopamine D2L radioligand binding ([3H]Spiperone). The note with it: read-out: Dopamine (1 μM) D2L, inhibition of ligand binding. How it is done: To evaluate in radioligand binding assays the activity of compounds of the invention, human recombinant dopamine D2L receptor expressed in Chinese hamster ovary (CHO) cells (Grandy, D. K. et al. Proc. Natl. Acad. Sci. USA. 86:9762, 1989; Hayes, G. et al., Mol. Endocrinol. 6:920, 1992) in a modified Tris-HCl buffer (50 mM Tris-HCl, pH 7.4, 1.4 mM Ascorbic Acid, 0.001% BSA, 150 mM NaCl) was used. Compounds of the invention were incubated with 0.16 nM [^3H]Spiperone for 120 minutes at 25° C. Non-specific binding was estimated in the presence of 10 μM Haloperidol. Receptor proteins were filtered and washed, the filters were then counted to determine [^3H]Spiperone specifically bound. Compounds were screened at 1 μM or lower, using 1% DMSO as vehicle. Biochemical assay results are presented as the percent inhibition of specific binding in Table 3.

In test [3] the target is T3, human recombinant serotonin (5-Hydroxytryptamine) 5-HT2A receptor (Homo sapiens, UniProt P28223).
T3 construct: expressed in transfected cells; host or cells: CHO-K1 cells
T3 sequence (P28223 whole entry): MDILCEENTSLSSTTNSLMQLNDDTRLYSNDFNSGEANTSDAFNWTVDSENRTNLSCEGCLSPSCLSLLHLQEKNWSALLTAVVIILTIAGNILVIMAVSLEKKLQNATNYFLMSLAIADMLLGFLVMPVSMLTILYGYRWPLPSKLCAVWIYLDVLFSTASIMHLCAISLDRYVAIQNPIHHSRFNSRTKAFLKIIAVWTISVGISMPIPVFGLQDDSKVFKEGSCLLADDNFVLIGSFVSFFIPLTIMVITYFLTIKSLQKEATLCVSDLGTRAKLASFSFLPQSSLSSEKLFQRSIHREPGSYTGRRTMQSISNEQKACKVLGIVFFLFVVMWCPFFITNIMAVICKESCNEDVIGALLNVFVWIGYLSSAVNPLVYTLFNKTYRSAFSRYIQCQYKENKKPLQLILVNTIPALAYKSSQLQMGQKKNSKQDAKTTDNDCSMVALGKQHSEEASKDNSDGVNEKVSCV
Kind of test: Serotonin 5-HT2A radioligand binding ([3H]Ketanserin). The note with it: for inhibition at 1 µM: read-out: Serotonin 5-HT2A, inhibition of ligand binding (1 μM). How it is done:
To evaluate in radioligand binding assays the activity of compounds of the invention, human recombinant serotonin (5-Hydroxytryptamine) 5-HT2A receptor expressed in Chinese hamster ovary (CHO-K1) cells (Bonhaus, D. W. et al. Br. J. Pharmacol. 115:622, 1995; Saucier, C. and Albert, P. R., J. Neurochem. 68:1998, 1997) in a 50 mM Tris-HCl buffer, pH 7.4, was used. Compounds of the invention were incubated with 0.5 nM [^3H]Ketanserin for 60 minutes at 25° C. Non-specific binding was estimated in the presence of 1 μM Mianserin. Receptor proteins were filtered and washed, the filters were then counted to determine [^3H]Ketanserin specifically bound. Compounds were screened at 1 μM or lower, using 1% DMSO as vehicle. Biochemical assay results are presented as the percent inhibition of specific binding in Table 4.

In test [4] the target is T4, human recombinant serotonin (5-Hydroxytryptamine) 5-HT6 receptor (Homo sapiens, UniProt P50406).
T4 construct: expressed in transfected cells; host or cells: human HeLa cells
T4 sequence (P50406 whole entry): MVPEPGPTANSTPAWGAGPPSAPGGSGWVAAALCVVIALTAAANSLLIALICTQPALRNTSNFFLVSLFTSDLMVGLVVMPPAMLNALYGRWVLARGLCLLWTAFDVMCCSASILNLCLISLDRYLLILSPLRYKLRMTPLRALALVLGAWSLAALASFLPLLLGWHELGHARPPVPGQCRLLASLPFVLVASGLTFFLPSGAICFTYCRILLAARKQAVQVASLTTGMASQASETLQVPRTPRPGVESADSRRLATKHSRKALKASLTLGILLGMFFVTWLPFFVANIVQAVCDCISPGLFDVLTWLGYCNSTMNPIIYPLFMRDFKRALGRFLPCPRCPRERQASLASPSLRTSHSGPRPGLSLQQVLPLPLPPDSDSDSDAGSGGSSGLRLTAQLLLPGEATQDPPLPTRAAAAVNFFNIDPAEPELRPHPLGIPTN
Nature of the test: Serotonin 5-HT6 radioligand binding ([3H]LSD). As to conditions: for inhibition at 1 µM: read-out: Serotonin 5-HT6, inhibition of ligand binding (1 μM). How it is done:
To evaluate in radioligand binding assays the activity of compounds of the invention, human recombinant serotonin (5-Hydroxytryptamine) 5-HT6 receptor expressed in human HeLa cells (Monsma, F. J. Jr. et al., Mol. Pharmacol. 43:320, 1993) in a modified Tris-HCl buffer (50 mM Tris-HCl, pH 7.4, 150 mM NaCl, 2 mM Ascorbic Acid, 0.001% BSA) was used. Compounds of the invention were incubated with 1.5 nM [3H]Lysergic acid diethylamide (LSD) for 120 minutes at 37° C. Non-specific binding was estimated in the presence of 5 μM Serotonin (5-HT). Receptor proteins were filtered and washed, the filters were then counted to determine [3H]LSD specifically bound. Compounds were screened at 1 μM or lower, using 1% DMSO as vehicle. Biochemical assay results are presented as the percent inhibition of specific binding in Table 4.

Each structure is given as a SMILES string. Several values for one entry are separate records, joined by “and”; a condition that tells them apart may be missing. Equal values may be shown once.

Broadly, the inhibition is the change of the read-out against control, counted positive when it falls. Consider `COc1ccc(CCn2c3c(c4cc(Cl)ccc42)C2CCC(C3)N2C)cc1` (stereo not shown) [Compound 84], for which the inhibition at 1 µM in test [1] (1 μM) is 76%; in test [2], -6%; in test [3], 77%; in test [4] it was 13%.

For the molecule `CN1C2CCC1c1c(n(CCc3ccc(C(F)(F)F)nc3)c3ccc(Cl)cc13)C2` (stereo not shown) [Compound 34], in test [1] (1 μM), the “Adrenergic α2A, inhibition of ligand binding (1 μM)” value worked out at 39.0%. The inhibition at 1 µM in test [1] (1 μM) is 42%; in test [2] it was -0.875%; in test [4], 20%. Besides, in test [3] (1 µM), the “Serotonin 5-HT2A, inhibition of ligand binding (1 μM)” value is 36.0/ % and 65.0%. The “Serotonin 5-HT6, inhibition of ligand binding (1 μM)” value in test [4] (1 µM) is listed as 28.0%.

`Cc1ccc2c(c1)c1c(n2CC(O)c2ccc(C)nc2)CC2CCC1N2C` (stereo not shown) [Compound 91]: the inhibition at 1 µM in test [1] (1 μM) was 29%; in test [2], -5%; in test [3], 2%; in test [4], -5%.

As for `C/C(=C\n1c2c(c3cc(Cl)ccc31)C1CCC(C2)N1C)c1ccc(Cl)cc1` (stereo not shown) [Compound 125], the inhibition at 1 µM in test [1] (1 μM) amounted to 92%; in test [2], 5%; in test [3] it was 101%; in test [4], 33%.

Turning to `Cc1ccc2c(c1)c1c(n2CCc2ccc(F)cc2)CC2CCC1N2C` (stereo not shown) [Compound 62], the inhibition at 1 µM in test [1] (1 μM) stood at 96%; in test [2], 41%; in test [4] it was 71%.

For the molecule `Cc1ccc(CCn2c3c(c4cc(Cl)ccc42)C2CCC(C3)N2C)cn1` (stereo not shown) [Compound 79], the inhibition at 1 µM in test [1] (1 μM) came out at 14%; in test [2], 9%; in test [3], 28%; in test [4], 10%.

Turning to `COc1ccc(C(C)(O)Cn2c3c(c4cc(Cl)ccc42)C2CCC(C3)N2C)cc1F` (stereo not shown) [Compound 160], the inhibition at 1 µM in test [1] (1 μM) is 63%; in test [2] it was 7%; in test [3] it was 95%; in test [4], 29%.

On to `Cc1ccc2c(c1)c1c(n2C#Cc2ccc(F)cc2)CC2CCC1N2C` (stereo not shown) [Compound 141], for which the inhibition at 1 µM in test [1] (1 μM) is 61%; in test [2] it was -4%; in test [3] it was 93%; in test [4], 21%.

On to `CN1C2CCC1c1c(n(C#Cc3ccc(Cl)cc3)c3ccc(Cl)cc13)C2` (stereo not shown) [Compound 142], for which the inhibition at 1 µM amounted to 82% in test [1] (1 μM), 0% in test [2], 98% in test [3] and 36% in test [4].

As to `Cc1ccc2c(c1)c1c(n2CC(=O)N2CCCCC2)CC2CCC1N2C` (stereo not shown) [Compound 93], the inhibition at 1 µM in test [1] (1 μM) is 4%; in test [2], -19%; in test [3], -12%; in test [4], -4%.

Consider `Cc1ccc(CCCn2c3c(c4cc(Cl)ccc42)C2CCC(C3)N2C)cn1` (stereo not shown) [Compound 38], for which the inhibition at 1 µM in test [1] (1 μM) was 33%; in test [2], -5%; in test [3] it was 13%; in test [4], 17%.

Turning to `Cc1cncc(CCn2c3c(c4cc(Cl)ccc42)C2CCC(C3)N2C)c1` (stereo not shown) [Compound 89], the inhibition at 1 µM in test [1] (1 μM) was found to be 5%; in test [2], 9%; in test [3], 27%; in test [4] it was 10%.

For the molecule `Cc1ccc2c(c1)c1c(n2CCC#N)CC2CCC1N2C` (stereo not shown) [Compound 103], the inhibition at 1 µM in test [1] (1 μM) stood at 57%; in test [2] it was 4%; in test [3], 13%; in test [4] it was 7%.

For `Cc1ccc(CCn2c3c(c4cc(Cl)ccc42)C2CCC(C3)N2C)cc1` (stereo not shown) [Compound 61], the values for the inhibition at 1 µM in test [1] (1 μM), in test [2] and in test [4] were 97%, 44% and 41%, respectively.

In the case of `Cc1ccc2c(c1)c1c(n2CCc2ccccc2)CC2CCCC1N2C` (stereo not shown) [Compound 56], the inhibition at 1 µM in test [1] (1 μM) is 92%; in test [3], 31%; in test [4], 30%.

Consider `CN1C2CCC1c1c(n(CC(=O)N3CCOCC3)c3ccc(Cl)cc13)C2` (stereo not shown) [Compound 59, 2-(2-chloro-11-methyl-5,6,7,8,9,10-Hexahydro-7,10-iminocyclohept[b]indol-5-yl)-1-morpholinoethanone], for which the inhibition at 1 µM was determined as 17% in test [1] (1 μM), 6% in test [2] and 0% in test [4].

As to `CN1C2CCC1c1c(n(CCC(=O)N3CCCC3)c3ccc(Cl)cc13)C2` (stereo not shown) [Compound 5], the inhibition at 1 µM in test [1] (1 μM) stood at 4%; in test [2], 10%; in test [4] it was 7%.

As for `CN1C2CCC1c1c(n(CC(=O)N3CCCC3)c3ccc(Cl)cc13)C2` (stereo not shown) [Compound 60], the inhibition at 1 µM came to 2% in test [1] (1 μM), 0% in test [2] and 9% in test [4].

`CN1C2CCC1c1c(n(CCc3ccc(Cl)cc3)c3ccc(F)cc13)C2` (stereo not shown) [Compound 33]: the inhibition at 1 µM is 69% in test [1] (1 μM), 17% in test [2] and 14% in test [4].

`CN1C2CCC1c1c(n(CCc3ccc(F)cc3)c3ccc(Cl)cc13)C2` (stereo not shown) [Compound 57]: the inhibition at 1 µM in test [1] (1 μM) came out at 96%; in test [3], 79%; in test [4], 46%.

`CN1C2CCC1c1c(n(CCC(=O)N3CCOCC3)c3ccc(Cl)cc13)C2` (stereo not shown) [Compound 13]: the inhibition at 1 µM in test [1] (1 μM) came to 2%; in test [2], 13%; in test [4] it was 10%.

Consider `Cc1ccc2c(c1)c1c(n2CCc2ccccc2)CC2CCC1N2C` (stereo not shown) [Compound 2], for which the inhibition at 0.01 µM in test [1] (10.0 nM, read-out: Adrenergic α2A, inhibition of ligand binding (10.0 nM)) was 47%. In addition, in test [1] (0.1 μM, read-out: Adrenergic α2A, inhibition of ligand binding (0.1 μM)), the inhibition at 0.1 µM is 88%. For the same molecule, the values for the inhibition at 1 µM in test [1] (1 μM), in test [3] and in test [4] were 100%, 96% and 82%, respectively.

`CN1C2CCC1c1c(n(CCc3ccc(Cl)cc3)c3ccc(Cl)cc13)C2` (stereo not shown) [Compound 58]: the figures for the inhibition at 1 µM in test [1] (1 μM), in test [3] and in test [4] were 98%, 79% and 25%, respectively.

With `CN1C2CCC1c1c(n(CCc3ccc(F)cc3)c3ccc(F)cc13)C2` (stereo not shown) [Compound 35], the inhibition at 1 µM in test [1] (1 μM) worked out at 93%; in test [2], 67%; in test [4] it was 70%.
